Patent US11285153B2, “Substituted pyrimidine piperazine compound and use thereof” (SUNSHINE LAKE PHARMA CO., LTD., priority 2017, dated 2022)

Assays:
[1] = biological target: T1, humanized 5-HT transporter (SERT) (Homo sapiens, UniProt P31645); assay: Affinity to humanized 5-HT transporter (SERT), [3H]imipramine binding, transfected CHO cell membranes; conditions: 2 nM [3H]imipramine, 22° C., 60 minutes
T1 construct: expressed in transfected cells; host or cells: CHO cells, membrane homogenate
Experimental: Example A: Evaluation of the Affinity of the Compound of the Invention to Humanized 5-HT Transporter Transfected by CHQ Cells
To a mixture of cell membrane homogenate protein (12 μg), 2 nM [^3H] imipramine, buffer (50 mM Tris-HCl (pH 7.4), 120 mM NaCl, 5 mM KCl, and 0.1% BSA) was added test compound or not under a condition of 22° C. The reaction mixture was incubated for 60 minutes.
To the mixture of the above condition was added 10 μM imipramine to measure the non-specific binding value.
(§1) The incubated samples were quickly filtered through a glass fiber membrane (GF/B, Packard) impregnated with 0.3% PEI by a 96-well cell collector (Unifilter, Packard) under vacuum, and repeatedly rinsed with cold 50 mM Tris-HCl and 150 mM NaCl for several times. The filter was dried and the residual radioactivity was calculated in a scintillation counter (Topcount, Packard) by using scintillation fluid (Microscint 0, Packard). The experimental results were expressed as a percentage of inhibition of specific binding of radioligand to the control group.
The standard reference compound was imipramine. The competitive curve was obtained by a series of concentration experiments and the IC50 was calculated.

[2] = biological target: T2, 5-HT1A receptor (Homo sapiens, UniProt P08908); assay: h5-HT1A binding affinity test, [3H]8-OH-DPAT, HEK-293 cell membranes; conditions: 0.3 nM [3H]8-OH-DPAT, 22° C., 60 minutes; from IC50 by ChengPrusoff equation
T2 construct: host or cells: human HEK-293 cells, membrane homogenate
T2 sequence (P08908 1-422): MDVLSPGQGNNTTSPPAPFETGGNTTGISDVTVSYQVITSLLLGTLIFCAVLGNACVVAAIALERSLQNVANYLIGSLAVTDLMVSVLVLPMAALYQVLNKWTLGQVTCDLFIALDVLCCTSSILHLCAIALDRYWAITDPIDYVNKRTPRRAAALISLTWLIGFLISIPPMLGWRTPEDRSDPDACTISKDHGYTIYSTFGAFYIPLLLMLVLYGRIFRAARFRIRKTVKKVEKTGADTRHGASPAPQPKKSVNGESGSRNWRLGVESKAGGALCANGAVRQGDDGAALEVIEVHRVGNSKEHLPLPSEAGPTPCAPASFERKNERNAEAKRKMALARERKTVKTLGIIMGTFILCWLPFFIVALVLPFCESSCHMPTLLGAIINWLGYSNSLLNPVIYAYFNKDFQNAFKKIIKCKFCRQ
Experimental: Example B: h5-HT1A Binding Affinity Test
To a mixture of human HEK-293 cell membrane homogenate (36 μg protein), 0.3 nM [^3H]8-OH-DPAT (Perkin-Elmer) and buffer (50 mM Tris-HCl (pH 7.4), 10 mM MgSO4, 0.5 mM EDTA, 2 μg/ml aprotinine) was added test compound or not under a condition of 22° C. The reaction mixture was incubated for 60 minutes.
The standard reference compound was 8-OH-DPAT. To a mixture of the above condition was added 10 μM 8-OH-DPAT to measure the non-specific binding value. A competitive curve was obtained by testing the data of a series of concentrations of 8-OH-DPAT in different experiments.
as §1, with “Tris-HCl” for “Tris-HCl and 150 mM NaCl”
The binding assay of [^3H]8-OH-DPAT (0.3 nM) to the 5-HT1A receptor in human HEK-293 cells was performed by a scintillation proximity assay of the membrane. The test compound needed to be tested at least three times at a concentration exceeding 6 log, and the data was subjected to nonlinear regression analysis by a Hill equation curve to obtain an IC50 value, which was then calculated by the ChengPrusoff equation to obtain a Ki value.

[3] = test system: mice; assay: Forced swimming test of mice, stationary time; format: in vivo, C57BL/6 mice; conditions: for Stationary time: 3 mg/kg intraperitoneally 30 minutes before the test, last 4 minutes of 6 minutes, Mean ± SEM, vehicle 120.4 ± 16.5
Experimental: The effects of the compound of the invention on the stationary time in a forced swimming test of mice were evaluated in the present invention.
Animals (C57BL/6 mice) were fed in the animal house barrier system one week earlier to adapt to the rearing environment of animal house. Three days before the trial, each animal was touched 2-3 minutes/day. On the day of the experiment, the animals were transferred to the operating room 60 minutes in advance, and were randomly divided into a vehicle group (20% HP-β-CD+80% H2O), a 40 mg/kg dose group of hydrochloride of Desipramine as the standard reference compound, 1, 3, 10 mg/kg dose groups of the phosphate of the test compound, a 3 mg/kg dose group of the hydrochloride of Vilazone, and a 3 mg/kg dose group of hydrochloride of compound A, a total of 7 groups, the number of animals in each group was 15-16. The vehicle, the standard reference compound of Desipramine, the test compound, Vilazodone or Compound A were intraperitoneally injected 30 minutes before the test. The mice were placed in the experimental apparatus during the test. The experimental apparatus was a cylindrical organic transparent glass tank (23 cm high and 12 cm in diameter). The water level was 8 cm from the bottom and the water temperature was 22±2° C. The length of each test was 6 minutes. There was one animal in each sink, recorded by an Ethovision software and a double-blind manual counting analysis. The stationary time of the last 4 minutes of the animal was recorded. All the experimental results were expressed as mean ±standard error (Mean ±SEM). Prism 6.0 statistical software was used to test and analyze the results. The significance of the difference was P<0.05, and P<0.01 was very significant.

[4] = Pharmacokinetic evaluation in rats after intravenous or intragastric administration; format: in vivo; conditions: SD, rat, plasma
Experimental: Pharmacokinetics of the compound of the invention in rats, dogs and monkeys were studied and evaluated.
The compound was administered to the tested animals in the form of 5% DMSO+5% Kolliphor HS15+2% (2% HCl)+88% Saline saline solution or 10% DMSO+10% Kolliphor HS15+80% normal saline solution. For the intravenous administration group, the dose was 1 mg/kg, and then the venous blood (0.3 mL) was taken at a time of 0, 0.083, 0.25, 0.5, 1.0, 2.0, 5.0, 7.0, and 24 hours after administration, and centrifuged at 3,000 or 4,000 rpm for 10 minutes. The plasma solution was collected and stored at −20° C. or −70° C. For the intragastric administration group, the dose was 2.5 mg/kg, and then the venous blood (0.3 mL) was taken at a time of 0, 0.083, 0.25, 0.5, 1.0, 2.0, 5.0, 7.0, and 24 hours after administration, and centrifuged at 3,000 or 4,000 rpm for 10 minutes. The plasma solution was collected and stored at −20° C. or −70° C.
The plasma solutions obtained from each of the above groups were subjected to LC/MS/MS analysis.
The LC/MS/MS system for analysis included the Agilent 1200 Series vacuum degasser, binary pump, orifice autosampler, thermostatic column oven, and Agilent G6430A triple quadrupole mass spectrometer with electrospray ionization (ESI) source.
Analysis was performed using a waters XBridge C18 (2.1×50 mm) column. The column was 3.5 μM and injection volume was 5 μL. The analytical conditions were as follows: mobile phase A: water+2 mM ammonium formate+0.1% formic acid mobile phase B: methanol+2 mM ammonium formate+0.1% formic acid. The flow rate was 0.4 mL/min.

T1 sequence (P31645 whole entry): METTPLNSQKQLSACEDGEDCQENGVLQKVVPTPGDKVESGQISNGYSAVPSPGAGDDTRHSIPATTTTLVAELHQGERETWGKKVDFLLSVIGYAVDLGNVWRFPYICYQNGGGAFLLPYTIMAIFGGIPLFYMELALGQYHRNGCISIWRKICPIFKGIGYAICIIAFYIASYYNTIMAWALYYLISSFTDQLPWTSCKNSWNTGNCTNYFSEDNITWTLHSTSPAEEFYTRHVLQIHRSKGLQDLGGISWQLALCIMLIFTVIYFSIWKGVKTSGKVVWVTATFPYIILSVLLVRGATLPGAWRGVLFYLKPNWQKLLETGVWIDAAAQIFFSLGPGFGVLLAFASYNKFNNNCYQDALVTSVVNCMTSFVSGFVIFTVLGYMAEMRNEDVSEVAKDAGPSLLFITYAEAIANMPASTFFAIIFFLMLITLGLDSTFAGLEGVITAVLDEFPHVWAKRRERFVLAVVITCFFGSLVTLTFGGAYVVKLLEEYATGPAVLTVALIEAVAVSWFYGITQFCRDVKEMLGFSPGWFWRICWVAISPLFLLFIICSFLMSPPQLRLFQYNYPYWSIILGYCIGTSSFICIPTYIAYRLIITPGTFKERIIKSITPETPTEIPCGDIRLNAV

SMILES	IC50 [1]	Ki [2]	also measured
N#Cc1ccc2[nH]cc(CCCCN3CCN(c4ncc(-c5ccc(C(N)=O)nc5)cn4)CC3)c2c1 [Example 3, 5-(2-(4-(4-(5-cyano-1H-indol-3-yl)butyl)piperazin-1-yl)pyrimidin-5-yl)pyridine-2-carboxamide]	0.79 nM	2.19 nM	
N#Cc1ccc2[nH]cc(CCCN3CCN(c4ncc(-c5cccc(C(N)=O)n5)cn4)CC3)c2c1 [Example 6, 6-(2-(4-(3-(5-cyano-1H-indol-3-yl)propyl)piperazin-1-yl)pyrimidin-5-yl)pyridine-2-carboxamide]	0.23 nM	1.1 nM	
N#Cc1ccc2[nH]cc(CCCN3CCN(c4ncc(-c5ccc(C(N)=O)nc5)cn4)CC3)c2c1 [Example 4, 5-(2-(4-(3-(5-cyano-1H-indol-3-yl)propyl)piperazin-1-yl)pyrimidin-5-yl)pyridine-2-carboxamide]	0.81 nM	4.13 nM	
N#Cc1ccc2[nH]cc(CCCCN3CCN(c4ncc(-c5ccc(C(N)=O)cn5)cn4)CC3)c2c1 [Example 1, 6-(2-(4-(4-(5-cyano-1H-indol-3-yl)butyl)piperazin-1-yl)pyrimidin-5-yl)nicotinamide]	0.68 nM	2.13 nM	
Cc1nc(-c2cnc(N3CCN(CCCc4c[nH]c5ccc(C#N)cc45)CC3)nc2)sc1C(N)=O [drawing 37]			Stationary time [3]: 75.1 ± 13.3 s
N#Cc1ccc2[nH]cc(CCCCN3CCN(c4ccc5oc(C(N)=O)cc5c4)CC3)c2c1 [Vilazodone]			Stationary time [3]: 107.8 ± 16.1 s; Effect on stationary time compared with the vehicle group ([3]; forced swimming test, same dose (3 mg/kg)): slightly reduce the stationary time of mice, but there is no significant difference
N#Cc1ccc2[nH]cc(CCCCN3CCN(c4ncc(-c5cccc(C(N)=O)n5)cn4)CC3)c2c1 [Example 5, 6-(2-(4-(4-(5-cyano-1H-indol-3-yl)butyl)piperazin-1-yl)pyrimidin-5-yl)pyridine-2-carboxamide]	0.66 nM	0.53 nM	
N#Cc1ccc2[nH]cc(CCCN3CCN(c4ncc(-c5ccc(C(N)=O)cn5)cn4)CC3)c2c1 [Example 2, 6-(2-(4-(3-(5-cyano-1H-indol-3-yl)propyl)piperazin-1-yl)pyrimidin-5-yl)nicotinamide]	0.45 nM	4.31 nM	

Continued, in another order:

IC50 [1]	Ki [2]	SMILES	also measured
0.33 nM	2.14 nM	Cc1nc(-c2cnc(N3CCN(CCCc4c[nH]c5ccc(C#N)cc45)CC3)nc2)sc1C(N)=O [Example 8, 2-(2-(4-(3-(5-cyano-1H-indol-3-yl)propyl)piperazin-1-yl)pyrimidin-5-yl)-4-methylthiazole-5-formamide]	AUC(0-inf) ([4]; iv, 1 mg/kg): 1820 ng·h/mL; AUC(0-t) ([4]; iv, 1 mg/kg): 1740 ng·h/mL; Cmax ([4]; iv, 1 mg/kg): 1000 ng/mL; Tmax ([4]; iv, 1 mg/kg): 0.083 h; clearance ([4]; iv, 1 mg/kg): 9.22 mL/min/kg; half-life ([4]; iv, 1 mg/kg): 1.72 h; Vd ([4]; iv, 1 mg/kg, read-out: Vss): 1.3 L/kg; AUC(0-inf) ([4]; po, 2.5 mg/kg): 1550 ng·h/mL; AUC(0-t) ([4]; po, 2.5 mg/kg): 1740 ng·h/mL; Cmax ([4]; po, 2.5 mg/kg): 590 ng/mL; Tmax ([4]; po, 2.5 mg/kg): 1 h; bioavailability ([4]; po, 2.5 mg/kg): 39.8%; half-life ([4]; po, 2.5 mg/kg): 1.58 h
0.45 nM	0.99 nM	CCOC(=O)c1sc(-c2cnc(N3CCN(CCCCc4c[nH]c5ccc(C#N)cc45)CC3)nc2)nc1C [Example 9, ethyl 2-(2-(4-(4-(5-cyano-1H-indol-3-yl)butyl)piperazin-1-yl)pyrimidin-5-yl)-4-methylthiazole-5-formate]	
0.13 nM	2.16 nM	CCOC(=O)c1sc(-c2cnc(N3CCN(CCCc4c[nH]c5ccc(C#N)cc45)CC3)nc2)nc1C [Example 10, ethyl 2-(2-(4-(3-(5-cyano-1H-indol-3-yl)propyl)piperazin-1-yl)pyrimidin-5-yl)-4-methylthiazole-5-formate]	
0.77 nM	1.01 nM	Cc1nc(-c2cnc(N3CCN(CCCCc4c[nH]c5ccc(C#N)cc45)CC3)nc2)sc1C(N)=O [Example 7, 2-(2-(4-(4-(5-cyano-1H-indol-3-yl)butyl)piperazin-1-yl)pyrimidin-5-yl)-4-methylthiazole-5-formamide]	
